According to patent publication US10647690B2, “2,3-epoxy succinyl derivative, preparation method and use thereof” (Institute of Pharmacology and Toxicology Academy of …, priority 2016, dated 2020):
Where two headings read alike, the source gives them in different places.

Key:
Format in all cases: biochemical
Cathepsin K [1] = molecular target: T1, Cathepsin K (Homo sapiens, UniProt P43235); assay: IC50 determination against Cathepsin K (Biovision kit K150-100); settings: CTSK
T1 construct: purchased Biovision K150-100
T1 sequence (P43235 115-329): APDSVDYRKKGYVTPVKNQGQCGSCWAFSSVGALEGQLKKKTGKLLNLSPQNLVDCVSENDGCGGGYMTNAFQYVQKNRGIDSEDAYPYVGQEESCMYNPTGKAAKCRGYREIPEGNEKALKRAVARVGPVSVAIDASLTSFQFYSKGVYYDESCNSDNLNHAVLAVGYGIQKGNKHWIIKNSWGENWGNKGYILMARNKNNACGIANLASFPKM
Experimental: (§1) 2. Method for determining IC50 of compounds against cathepsin:
IC50 of compounds against Cathepsin K was determined by using Cathepsin K Inhibitor Screening Kit (Product No. K150-100) from Biovision Company;
2.1.1.1 Preparation of Cathepsin K solution: Cathepsin K enzyme (23 μl) and Cathepsin K reagent (46 μl) were added to Cathepsin K buffer (2231 μl), and mixed well, to prepare Cathepsin K enzyme solution with a volume of 2.3 ml, which was placed on ice for further use.
(§2) 2.1.2 Preparation of compound solutions: 30 mM and 10 mM compound stock solutions, and control compounds were gradiently diluted in DMSO at a ratio of 1:3, wherein the maximum dilution fold was 19683; the gradiently diluted compound solution (3 μl) was added to Cathepsin K, B, L, and S buffer (27 μl), respectively, and mixed well, wherein the control compounds (FF-FMK, F-F-FMK, FF-FMK and Z-FF-FMK) were at the concentrations of 66.67, 22.22, 7.41, 2.47, 0.82, 0.27, 0.091, 0.03, 0.01, 0.0034 and 0 μM, respectively, the test compounds were at the concentrations of 1000, 333.3, 111.1, 37, 12.3, 4.1, 1.4, 0.46, 0.15, 0.05 and 0 μM, respectively, and the final concentration of DMSO was 10%.
2.1.3.1 Cathepsin K: Cathepsin K substrate (90 μl) was added to Cathepsin K buffer (1710 μl), and mixed well, to prepare Cathepsin K substrate solution with a volume of 1.8 ml, which was placed on ice for further use.
(§3) Method for screening cathepsin inhibitors: the cathepsin solution (prepared in Item 2.1.1) was added to a 384-well plate (ProxiPlate-384 Plus, Perkinelmer) at 10 μl/well, and centrifuged at 1000 rpm for Imin; the compound solution (prepared in Item 2.1.2) was then added at 2 μl/well, and every concentration was repeated in two wells; the final concentrations of the test compounds were 100, 33.3, 11.1, 3.7, 1.23, 0.41, 0.14, 0.046, 0.015, 0.005 and 0 μM, respectively, wherein the final concentration of DMSO was 1%; after centrifugation at 1000 rpm for 1 min, the plate was put in a 25° C. incubator for 15 min; the cathepsin substrate solution was then added at 8 µl/well, and centrifuged at 1000 rpm for 1 min; and finally, the fluorescence signal was read in Enspire, wherein the exciting light was at a wavelength of 400 nm, the emitting light was at a wavelength of 505 nm, and continuous reading was performed at 37° C. for 120 min.
(§4) Data analysis: the slope (S) for all the samples was calculated by ΔRFU(RFU2−RFU1) and time ΔT(T2−T1), including negative control (Enzyme Control, EC) and positive control (Inhibitor Control, IC: 10 μM (FF-FMK, F-F-FMK, FF-FMK and Z-FF-FMK), and the calculation formula was as followed: Relative inhibition rate %=(SEC−SS)/(SEC−SIC)*100. The IC50 for each compound was obtained by means of fitting by software GraphPad Prism 5.0.

Cathepsin K [2] = molecular target: T1, Cathepsin K; assay: Preliminary screening of Cathepsin K (Cathepsin K Inhibitor Screening Kit K150-100, Biovision); settings: relative inhibition rate vs 10 μM FF-FMK control
Experimental: 1. Method for preliminary screening of Cathepsin K:
Preliminary screening of Cathepsin K was performed by using Cathepsin K Inhibitor Screening Kit (Product No. K150-100) from Biovision Company.
1.1.1 Preparation of Cathepsin K enzyme solution: Cathepsin K enzyme (40 μl) and Cathepsin K reagent (80 μl) were added to Cathepsin K buffer (3.88 ml), and were mixed well, to prepare Cathepsin K enzyme solution with a volume of 4 ml, which was placed on ice for further use.
1.1.2 Preparation of a compound solution: different compounds were separately weighed and dissolved in DMSO (methyl sulfoxide), to prepare solutions at a concentration of 30 mM as stock solutions, and for some insoluble compounds, they were prepared into solutions at a concentration of 10 mM as stock solutions; the 30 mM and 10 mM compound stock solutions were diluted to 1 mM and 100 μM DMSO solutions, respectively; 1 mM and 100 μM compound DMSO solutions (2 μl) were separately added to CTSK buffer (18 μl), to prepare compound solutions at a final concentration of 100 μM and 10 μM, respectively, wherein the concentration of DMSO was 10%.
1.1.3 Preparation of Cathepsin K substrate solution: Cathepsin K substrate (160 μl) was added to Cathepsin K buffer (3.44 ml), and mixed homogeneously, to prepare Cathepsin K substrate solution with a volume of 3.6 ml, which was placed on ice for further use.
1.2 Method for screening Cathepsin K inhibitor: Cathepsin K enzyme solution (prepared in Item 1.1.1) was added to a 384-well plate (ProxiPlate-384 Plus, Perkinelmer) at 10 μl/well, and centrifuged at 1000 rpm for 1 min; the compound solution (prepared in Item 1.1.2) was then added at 2 µl/well, and centrifuged at 1000 rpm for 1 min, and every concentration was repeated in two wells; the plate was placed in a 25° C. incubator for 15 min; Cathepsin K substrate solution was then added at 8 μl/well, and centrifuged at 1000 rpm for 1 min; and finally, the fluorescence signal was read in Enspire, wherein the exciting light was at a wavelength of 400 nm, the emitting light was at a wavelength of 505 nm, and continuous reading was performed at 37° C. for 120 min.
1.3 Data analysis: the slope (S) for all the samples was calculated by ΔRFU (RFU2−RFU1) and time ΔT (T2−T1), including negative control (Enzyme Control, EC) and positive control (Inhibitor Control, IC: 10 μM FF-FMK), and the calculation formula was as followed: Relative inhibition rate %=(SEC−SS)/(SEC−SIC)*100.

Cathepsin S = molecular target: T2, Cathepsin S (Homo sapiens, UniProt P25774); assay: IC50 determination against Cathepsin S (Biovision kit K149-100); settings: CTSS
T2 construct: purchased Biovision K149-100
T2 sequence (P25774 115-331): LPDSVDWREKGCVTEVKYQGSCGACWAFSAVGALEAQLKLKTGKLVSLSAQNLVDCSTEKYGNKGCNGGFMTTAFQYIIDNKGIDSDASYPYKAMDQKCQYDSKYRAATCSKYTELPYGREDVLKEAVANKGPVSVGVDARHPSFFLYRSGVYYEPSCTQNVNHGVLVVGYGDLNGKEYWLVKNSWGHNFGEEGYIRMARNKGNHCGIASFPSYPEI
Experimental: as §1
IC50 of compounds against Cathepsin S was determined by using Cathepsin S Inhibitor Screening Kit (Product No. K149-100) from Biovision Company.
2.1.1.4 Preparation of Cathepsin S solution: Cathepsin S enzyme (46 μl) was added to Cathepsin S buffer (2254 μl), and mixed well, to prepare Cathepsin S enzyme solution with a volume of 2.3 ml, which was placed on ice for further use.
as §2
2.1.3.4 Cathepsin S: Cathepsin S substrate (90 μl) was added to Cathepsin S buffer (1710 μl), and mixed well, to prepare Cathepsin S substrate solution with a volume of 1.8 ml, which was placed on ice for further use.
as §3, §4

[3] = Exp-1, read-out: IC50 (nM) Exp-1
[4] = Exp-2, read-out: IC50 (nM) Exp-2
[5] = average of Exp-1 and Exp-2, read-out: Ave of IC50

- IC50 (Cathepsin K [1]; [3]): 252 nM
- IC50 (Cathepsin K [1]; [4]): 245 nM
- IC50 (Cathepsin K [1]; [5]): 248 nM
- Inhibition % (1 μM) replicate 1 (Cathepsin K [2]; 1 μM compound, replicate 1): 88.44%
- Inhibition % (1 μM) replicate 2 (Cathepsin K [2]; 1 μM compound, replicate 2): 92.44%
- Inhibition % (10 μM) replicate 1 (Cathepsin K [2]; 10 μM compound, replicate 1): 94.49%
- Inhibition % (10 μM) replicate 2 (Cathepsin K [2]; 10 μM compound, replicate 2): 91.36%
- IC50 (Cathepsin S; [3]): 3510 nM
- IC50 (Cathepsin S; [4]): 3230 nM
- IC50 (Cathepsin S; [5]): 3370 nM
Structure (SMILES): CCCNC(=O)[C@H]1O[C@@H]1C(=O)N[C@H](C(=O)N1CCC[C@H]1C(=O)O)[C@@H](C)CC [zxy-60, CA-074, reference compound]
